These results are taken from PubChem BioAssay AID200 (DTP/NCI, 2004).

Structures are written as SMILES. “And” between values parts separate entries of the source, which are not always exact repeats. Identical values can stand only once. Inconclusive results and toxic doses are left out. Where a SMILES comes first, the peptide text is derived from it. [ ]: non-standard residue; d: D form. The star is where a group is joined. Cbz = O=C(OCc1ccccc1)*; Nva = CCC[CH](N)C(=O)O

The assay deals with B6C3F1 mice, B16 melanoma ip, median survival T/C. In words: NCI In Vivo Anticancer Drug Screen. Data for tumor model B16 Melanoma (intraperitoneal) in B6C3F1 mice. The settings on record: endpoint: median survival time, higher = longer survival. The procedure, abridged: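 Readout: survival or tumor size in treated mice relative to vehicle controls (T/C). Model uses transplantable tumors grown in mice.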

The mark [1] stands for this setting: dose: 6.25 mg/kg/injection, schedule: Q01DX009 (ip), vehicle: saline with Tween-80.
Where [2] appears, read: dose: 12.5 mg/kg/injection, schedule: Q01DX009 (ip), vehicle: saline with Tween-80.
[3] abbreviates: dose: 25.0 mg/kg/injection, schedule: Q01DX009 (ip), vehicle: saline with Tween-80.
Setting [4] is: dose: 50.0 mg/kg/injection, schedule: Q01DX009 (ip), vehicle: saline with Tween-80.
Where [5] appears, read: dose: 100.0 mg/kg/injection, schedule: Q01DX009 (ip), vehicle: saline with Tween-80.
[6] abbreviates: dose: 200.0 mg/kg/injection, schedule: Q01DX009 (ip), vehicle: saline with Tween-80.
Where [7] appears, read: dose: 25.0 mg/kg/injection, schedule: Q01DX009 (ip), vehicle: Klucel (hydroxypropylcellulose) (HPC).
The mark [8] stands for this setting: dose: 100.0 mg/kg/injection, schedule: Q01DX009 (ip), vehicle: Klucel (hydroxypropylcellulose) (HPC).
Where [9] appears, read: dose: 200.0 mg/kg/injection, schedule: Q01DX009 (ip), vehicle: Klucel (hydroxypropylcellulose) (HPC).
Where [10] appears, read: dose: 400.0 mg/kg/injection, schedule: Q01DX009 (ip), vehicle: Klucel (hydroxypropylcellulose) (HPC).
[11] abbreviates: dose: 25.0 mg/kg/injection, schedule: Q01DX009 (ip), vehicle: saline.
The mark [12] stands for this setting: dose: 50.0 mg/kg/injection, schedule: Q01DX009 (ip), vehicle: saline.
Where [13] appears, read: dose: 100.0 mg/kg/injection, schedule: Q01DX009 (ip), vehicle: saline.
Setting [14] is: dose: 200.0 mg/kg/injection, schedule: Q01DX009 (ip), vehicle: saline.
The mark [15] stands for this setting: dose: 400.0 mg/kg/injection, schedule: Q01DX009 (ip), vehicle: saline.
Setting [16] is: dose: 12.5 mg/kg/injection, schedule: Q01DX009 (ip), vehicle: saline.

In the case of `Cc1ccc2c(c1)N=C(Nc1ccccc1)N=S2(C)=O` (centres undefined), the T/C under setting [1] is 101 % of control; the T/C under setting [2] was 87 % of control; the T/C under setting [3] is 102 % of control; the T/C under setting [4] was 96 % of control; the T/C under setting [5] was 87 % of control; the T/C under setting [6] was 90 % of control.
Take `CCN(CC)CCCNc1nccc2c(C)c3[nH]c4ccncc4c3cc12`: the T/C by setting is: (dose: 0.38 mg/kg/injection, schedule: Q01DX009 (ip), vehicle: other) 176 % of control; (dose: 0.75 mg/kg/injection, schedule: Q01DX009 (ip), vehicle: other) 170 % of control; (dose: 1.5 mg/kg/injection, schedule: Q01DX009 (ip), vehicle: other) 180 % of control; (dose: 3.0 mg/kg/injection, schedule: Q01DX009 (ip), vehicle: other) 202 % of control; (dose: 6.0 mg/kg/injection, schedule: Q01DX009 (ip), vehicle: other) 257 % of control.
Take `Nc1nc2c(C(=O)N3CCCC3)nnn2c2ccccc12`: the T/C is, setting by setting: under setting [1], 118 % of control; under setting [2], 104 % of control; under setting [3], 122 % of control; under setting [4], 107 % of control; under setting [5], 102 % of control.
For `Cc1cc2c(cc1C)C(=O)c1c(O)c3c(c(O)c1C2=O)C[C@@](O)(C(=O)CO)C[C@@H]3OC1CC(N)C(O)C(C)O1` (some centres undefined), the T/C is 193 % of control (dose: 2.5 mg/kg/injection, schedule: Q01DX001 (ip), vehicle: water); 162 % of control and 193 % of control (dose: 5.0 mg/kg/injection, schedule: Q01DX001 (ip), vehicle: water); 213 % of control and 236 % of control (dose: 10.0 mg/kg/injection, schedule: Q01DX001 (ip), vehicle: water); 155 % of control and 240 % of control (dose: 20.0 mg/kg/injection, schedule: Q01DX001 (ip), vehicle: water).
Regarding `Cc1c(-c2ccc(C3CCCCC3)cc2)nc2ccc(F)cc2c1C(=O)O`, the T/C reads like this: under setting [7], 121 % of control; under setting [8], 155 % of control; under setting [9], 150 % of control; under setting [10], 160 % of control and 179 % of control.
Regarding `Cc1cc([NH-])c([NH-])cc1C.[Cl][Pt+2][Cl]`, the T/C (dose: 1.25 mg/kg/injection, schedule: Q01DX009 (ip), vehicle: saline with Tween-80) is 112 % of control and the T/C (dose: 10.0 mg/kg/injection, schedule: Q01DX009 (ip), vehicle: saline with Tween-80) is 161 % of control.
As for `OCC[N+]12CN3CN(CN(C3)C1)C2`, the T/C runs as follows: under setting [11], 101 % of control; under setting [12], 109 % of control; under setting [13], 103 % of control; under setting [14], 108 % of control; under setting [15], 108 % of control.
`Nc1ccc2ccc(O)cc2c1`: the T/C by setting is: under setting [3], 104 % of control; under setting [4], 97 % of control; under setting [5], 105 % of control.
On to `CCN(CC)CCCC(C)Nc1c2ccc(C)cc2nc2ccc(OC)cc12` (centres undefined), for which the T/C is 102 % of control under setting [16] and 111 % of control under setting [11].
Turning to `CC(C)C(N)C(=O)Nc1nncs1` (centres undefined), the T/C reads like this: under setting [16], 102 % of control; under setting [11], 104 % of control; under setting [12], 98 % of control; under setting [13], 113 % of control; under setting [14], 114 % of control; under setting [15], 117 % of control.
With `O=C1C=C2C(=CCOC2O)O1` (centres undefined), the T/C reads like this: (dose: 0.25 mg/kg/injection, schedule: Q01DX009 (ip), vehicle: Klucel (hydroxypropylcellulose) (HPC)) 95 % of control and 97 % of control; (dose: 0.5 mg/kg/injection, schedule: Q01DX009 (ip), vehicle: Klucel (hydroxypropylcellulose) (HPC)) 94 % of control and 98 % of control; (dose: 1.0 mg/kg/injection, schedule: Q01DX009 (ip), vehicle: Klucel (hydroxypropylcellulose) (HPC)) 99 % of control and 100 % of control; (dose: 2.0 mg/kg/injection, schedule: Q01DX009 (ip), vehicle: Klucel (hydroxypropylcellulose) (HPC)) 97 % of control; (dose: 4.0 mg/kg/injection, schedule: Q01DX009 (ip), vehicle: Klucel (hydroxypropylcellulose) (HPC)) 91 % of control.
`COc1cccc2c1C(=O)c1c(O)c3c(c(O)c1C2=O)C[C@@](O)(C(=O)CO)C[C@@H]3OC1CC(N(C)C)C(O)C(C)O1` (some centres undefined): the T/C was 100 % of control (dose: 0.12 mg/kg/injection, schedule: Q01DX009 (ip), vehicle: saline); 152 % of control and 166 % of control (dose: 0.5 mg/kg/injection, schedule: Q01DX009 (ip), vehicle: saline); 153 % of control and 205 % of control (dose: 1.0 mg/kg/injection, schedule: Q01DX009 (ip), vehicle: saline); 172 % of control and 261 % of control (dose: 2.0 mg/kg/injection, schedule: Q01DX009 (ip), vehicle: saline).
Consider `Cc1nnc2ncccn12`, for which the T/C by setting is: under setting [16], 97 % of control and 106 % of control; under setting [11], 96 % of control and 103 % of control; under setting [12], 98 % of control and 100 % of control; under setting [13], 97 % of control and 103 % of control; under setting [14], 94 % of control and 97 % of control; under setting [15], 90 % of control and 102 % of control.
For `CCCC(NC(=O)OCc1ccccc1)C(=O)NC(CC(C)C)C(=O)O` (centres undefined) (Cbz-[Nva]-Leu-OH; configuration not given here), the T/C reads like this: under setting [8], 104 % of control; under setting [9], 104 % of control; under setting [10], 96 % of control.
As for `COc1cc2c(cc1OC)-c1c3c(cc4c1[C@@H](C2)N(C)CC4)OCO3`, the T/C was 98 % of control (dose: 6.25 mg/kg/injection, schedule: Q01DX009 (ip), vehicle: distilled water + Tween-80); 89 % of control (dose: 12.5 mg/kg/injection, schedule: Q01DX009 (ip), vehicle: distilled water + Tween-80); 104 % of control (dose: 25.0 mg/kg/injection, schedule: Q01DX009 (ip), vehicle: distilled water + Tween-80); 92 % of control (dose: 50.0 mg/kg/injection, schedule: Q01DX009 (ip), vehicle: distilled water + Tween-80).
For the molecule `COCCOC`, the T/C is, setting by setting: under setting [13], 98 % of control; under setting [14], 94 % of control; under setting [15], 96 % of control.
`Nc1ccc(C(=O)O)cc1`: the T/C (dose: 3.12 mg/kg/injection, schedule: Q01DX009 (ip), vehicle: Klucel (hydroxypropylcellulose) (HPC)) is 100 % of control and 104 % of control; the T/C (dose: 6.25 mg/kg/injection, schedule: Q01DX009 (ip), vehicle: Klucel (hydroxypropylcellulose) (HPC)) is 114 % of control and 99 % of control and 103 % of control; the T/C (dose: 12.5 mg/kg/injection, schedule: Q01DX009 (ip), vehicle: Klucel (hydroxypropylcellulose) (HPC)) is 114 % of control and 101 % of control; the T/C under setting [7] was 112 % of control and 90 % of control and 107 % of control; the T/C (dose: 25.0 mg/kg/injection, schedule: Q01DX009 (ip), vehicle: water) is 98 % of control; the T/C (dose: 50.0 mg/kg/injection, schedule: Q01DX009 (ip), vehicle: Klucel (hydroxypropylcellulose) (HPC)) is 100 % of control. Further, the T/C reads like this: (dose: 50.0 mg/kg/injection, schedule: Q01DX009 (ip), vehicle: water) 101 % of control; under setting [8], 117 % of control; (dose: 100.0 mg/kg/injection, schedule: Q01DX009 (ip), vehicle: water) 102 % of control; under setting [9], 105 % of control.
`O=C1c2cccc3cc([N+](=O)[O-])cc(c23)C(=O)N1CCN1CCCC1`: the T/C reads like this: under setting [1], 122 % of control; under setting [3], 108 % of control.
Consider `OC1(CSc2ccccc2)CCCCC1`, for which the T/C by setting is: under setting [2], 90 % of control and 105 % of control; under setting [3], 93 % of control and 102 % of control; under setting [4], 117 % of control and 95 % of control; under setting [5], 93 % of control and 102 % of control; under setting [6], 105 % of control; (dose: 400.0 mg/kg/injection, schedule: Q01DX009 (ip), vehicle: saline with Tween-80) 89 % of control.
On to `O=C1CCCCC1C(=O)C(F)(F)F` (centres undefined), for which the T/C was 103 % of control (dose: 4.5 mg/kg/injection, schedule: Q01DX009 (ip), vehicle: saline + Tween-80 + alcohol); 93 % of control (dose: 9.0 mg/kg/injection, schedule: Q01DX009 (ip), vehicle: saline + Tween-80 + alcohol); 87 % of control (dose: 18.0 mg/kg/injection, schedule: Q01DX009 (ip), vehicle: saline + Tween-80 + alcohol); 102 % of control (dose: 50.0 mg/kg/injection, schedule: Q01DX009 (ip), vehicle: saline + Tween-80 + alcohol).
